The source of these data is article PMC10529643, “Discovery of ACE Inhibitory Peptides Derived from Green Coffee Using In Silico and In Vitro Methods” (Foods, 2023).

The subject of data set [1] is Angiotensin converting enzyme (ACE). In words: In vitro ACE inhibitory activity assay with FAPGG substrate. The class given is biochemical. The note with it: captopril at 0.1 μM, 37 °C, 30 min, absorbance 340 nm. As to the method: The peptides predicted with potential antihypertensive capacity were synthesized by GenScript. The ACE inhibitory capacity of hydrolysates and selected peptides were measured as previously described with minor modifications; 400 μL of samples (hydrolysates, synthesized peptides dissolved in the HEPES-NaCl buffer at a concentration of 1.25 mg/mL, 125 μM separately) were mixed with 100 μL of ACE (0.2 U/mL). After incubation of the mixture at 37 °C for 10 min, 500 μL of FAPGG was added and the absorbance value at 340 nm was detected instantly by a FlexStation 3 and recorded as A0 min. After being kept at 37 °C for 30 min, the absorbance value at 340 nm was detected again and recorded: ACE inhibitory rate%=∆Acontrol−∆Asample/∆Acontrol×100% where A0 min is the initial absorbance at 340 nm; A30 min is the absorbance at 340 nm after keeping at 37 °C for 30 min, and ΔA is the reduction in the absorbance: A0 min–A30 min.

In the next data set the test system is pepsin. Kind of data set: In vitro gastrointestinal digestion simulation, pepsin step, MS analysis. The class given is in vitro ADME. The note with it: 1.0 mg/mL peptide, pepsin 1% E/S w/w, pH 2.0, 37 °C, 2 h; Q-TOF MS read-out. On the procedure:
(§1) In vitro gastrointestinal digestion simulation was performed according to the method described by Fan et al. with minor modifications. Two peptides (CP2, CP3) were dissolved in ultrapure water at 1.0 mg/mL, respectively. The solutions were adjusted to pH 2.0 with […]. Then, pepsin (1% E/S, w/w) was added to peptide solutions and the mixtures were incubated at 37 °C for 2 h. Half of the two digests were terminated in digestion by increasing the temperature to 90 °C. After the other half were adjusted to pH 7.5 with […], pancreatin (1% E/S, w/w) was added and the systems were digested at 37 °C for 2 h. The reactions were then stopped by boiling for 10 min. Subsequently, solvents were centrifuged at 10,000 rpm for 10 min. The supernatants were lyophilized to collect and analyzed using Agilent 6545 series Q-TOF mass spectrometer (Agilent, Waldbronn, Germany). The ACE inhibitory activity of the digested peptide solutions was determined under the same conditions.

The subject of another data set is pepsin-pancreatin. Kind of data set: In vitro gastrointestinal digestion simulation, pepsin then pancreatin, MS analysis. Type of data set: in vitro ADME. The following applies: pepsin pH 2.0, 37 °C, 2 h then pancreatin 1% E/S w/w, pH 7.5, 37 °C, Q-TOF MS read-out. On the procedure: as §1
A further data set relates to ACE. The note with it: cited from earlier work.

Read-outs that look alike come from different tables or passages of the source. Ends that are not written are not given here.

Consider `C[C@H](CS)C(=O)N1CCC[C@H]1C(=O)O` [Captopril, captopril], for which the “ACE inhibition (%)” value in data set [1] turned out to be 97.5%.

Turning to IIPNEVY [CP2], the “stability against pepsin digestion” value in the data set on pepsin is given as “well resistant in gastric digestion”. In the data set on pepsin-pancreatin, the “stability against successive pepsin and pancreatin digestion” value is recorded as “new peptide sequences were detected”. With ITPPVMLPP [CP3], in the data set on pepsin, the “stability against pepsin digestion” value is “Only a small amount of CP3 was degraded”. For the same compound, the “stability against successive pepsin and pancreatin digestion” value with pepsin-pancreatin was “Great changes in the MS analysis”. Consider QAGLSPVR, for which the ACE inhibition pattern result with ACE (from tilapia skin gelatin) is reported as “noncompetitive”. Take QLDL: the ACE inhibition pattern entry in the data set with ACE (from the mycelia of Ganoderma Lucidum) is on record as “noncompetitive”.

Consider VFDGVLRPGQ, for which the ACE inhibition pattern result in the data set with ACE (from rice bran protein) is on record as “noncompetitive”.

As to VGLPPNSR, the ACE inhibition pattern entry in the data set on ACE (from tilapia skin gelatin) was “noncompetitive”.
